Several values for one entry are separate records, joined by “and”; a condition that tells them apart may be missing. Equal entries are not always repeated.
What was measured:
[1] = Pharmacokinetic study: plasma concentration and plasma PK parameters after IV/PO dosing (LC-MS/MS, WinNonlin); assay type: in vivo, Male SD Rat; conditions: male SD rat, vehicle 20% HP-β-CD in water (POA, freebase) or water (salts)
Source text: Pharmacokinetic and Brain Penetration Study
Dose formulation processing during dosing: The dose formulations will be kept at room temperature.
Concentrations of Test Article in the plasma samples will be analyzed using a LC-MS/MS method.
WinNonlin (Phoenix™, version 6.1) or other similar software will be used for pharmacokinetic calculations. The following pharmacokinetic parameters will be calculated, whenever possible from the plasma concentration versus time data:
IV administration: T1/2, C0, AUClast, AUCinf, MRTinf, Cl, Vss, Number of Points for Regression.
PO administration: T1/2, Cmax, Tmax, MRTinf, AUCinf, AUClast, F %, Number of Points for Regression.
The pharmacokinetic data will be described using descriptive statistics such as mean, standard deviation.

[2] = Solubility studies in water at 2 hours; assay type: physicochemical
[3] = Dynamic vapor sorption (DVS), hygroscopicity at 25° C.; assay type: physicochemical
Method: Dynamic Vapor Sorption (DVS)
DVS was determined using DVS Intrinsic (SMS, UK). Transfer about 20 to 50 mg of the compound into a SMS dynamic vapor sorption model DVS and record the weight change with respect to a varying atmospheric humidity at 25° C.

[4] = PO 10 mg/kg (equal to freebase), plasma, individual rats, listed as TLZ-16 HC1, 10 mg/kg
[5] = PO 10 mg/kg (equal to freebase), plasma, mean n=3

With COc1cc2c(cc1OC)[C@@H]1Cc3ccc(O)c(OC)c3CN1CC2.Cl [TLZ-16 HCl] the F ([1]; PO 10 mg/kg (equal to freebase) vs IV 3 mg/kg freebase, individual rats, listed as TLZ-16 HC1) was 35.9% and 20.7% and 24.7%, the “F, Mean” value ([1]; PO 10 mg/kg (equal to freebase) vs IV 3 mg/kg freebase, mean n=3) was 27.1% and the concentration in plasma ([1]; PO 10 mg/kg (equal to freebase), 0 h, individual rats) was “BLOQ (BLOQ = below limit of quantitation (0.2 ng/mL))”. For the same molecule, the concentration in plasma ([1]; PO 10 mg/kg (equal to freebase), 0.25 h, individual rats, 10 mg/kg) was 236 ng/mL and 239 ng/mL and 385 ng/mL, the “concentration in plasma, Mean” value ([1]; PO 10 mg/kg (equal to freebase), 0.25 h, mean n=3) was 287 ng/mL and the concentration in plasma ([1]; PO 10 mg/kg (equal to freebase), 0.5 h, individual rats, 10 mg/kg) was 225 ng/mL and 217 ng/mL and 356 ng/mL. For the same molecule, the “concentration in plasma, Mean” value ([1]; PO 10 mg/kg (equal to freebase), 0.5 h, mean n=3) was 266 ng/mL, the concentration in plasma ([1]; PO 10 mg/kg (equal to freebase), 1 h, individual rats, 10 mg/kg) was 130 ng/mL and 149 ng/mL and 173 ng/mL and the “concentration in plasma, Mean” value ([1]; PO 10 mg/kg (equal to freebase), 1 h, mean n=3) was 151 ng/mL. For the same molecule, the concentration in plasma ([1]; PO 10 mg/kg (equal to freebase), 2 h, individual rats, 10 mg/kg) was 135 ng/mL and 129 ng/mL and 115 ng/mL, the “concentration in plasma, Mean” value ([1]; PO 10 mg/kg (equal to freebase), 2 h, mean n=3) was 126 ng/mL and the concentration in plasma ([1]; PO 10 mg/kg (equal to freebase), 4 h, individual rats, 10 mg/kg) was 109 ng/mL and 60.3 ng/mL and 79.2 ng/mL. For the same molecule, the “concentration in plasma, Mean” value ([1]; PO 10 mg/kg (equal to freebase), 4 h, mean n=3) was 82.8 ng/mL, the concentration in plasma ([1]; PO 10 mg/kg (equal to freebase), 8 h, individual rats, 10 mg/kg) was 44.3 ng/mL and 15.6 ng/mL and 14.1 ng/mL and the “concentration in plasma, Mean” value ([1]; PO 10 mg/kg (equal to freebase), 8 h, mean n=3) was 24.7 ng/mL. The concentration in plasma ([1]; PO 10 mg/kg (equal to freebase), 24 h, individual rats, 10 mg/kg) was 0.356 ng/mL and BLOQ (BLOQ = below limit of quantitation (0.2 ng/mL)) (2×), the Tmax ([1]; PO 10 mg/kg (equal to freebase), plasma, individual rats) was 0.25 h and the AUCInf [1, 4] was 1217 ng·h/mL and 703 ng·h/mL and 837 ng·h/mL. The AUClast [1, 4] was 1216 ng·h/mL and 658 ng·h/mL and 798 ng·h/mL, the AUClast/D [1, 4] was 122 kg·ng·h/mL/mg and 65.8 kg·ng·h/mL/mg and 79.8 kg·ng·h/mL/mg and the “AUC—% Extrap_obs” value [1, 4] was 0.101% and 6.34% and 4.66%. For the same molecule, the Cmax [1, 4] was 236 ng/mL and 239 ng/mL and 385 ng/mL, the MRTInf_obs [1, 4] was 4.53 h and 2.86 h and 2.58 h and the T1/2 [1, 4] was 2.39 h and 1.98 h and 1.92 h. For the same molecule, the “AUCInf, Mean” value [1, 5] was 919 ng·h/mL, the “AUClast, Mean” value [1, 5] was 891 ng·h/mL and the AUClast/D, Mean [1, 5] was 89 kg·ng·h/mL/mg. The “AUC—% Extrap_obs, Mean” value [1, 5] was 3.70%, the “Cmax, Mean” value [1, 5] was 287 ng/mL and the “MRTInf_obs, Mean” value [1, 5] was 3.32 h. The “T1/2, Mean” value [1, 5] was 2.09 h, the “Tmax, Mean” value [1, 5] was 0.250 h and the solubility in water [2] was “approximately 19.1 mg/mL”. The “hygroscopicity (DVS)” value ([3]; DVS, 25° C.) was “slightly hygroscopic”, the “solid form after DVS test” value ([3]; after DVS test) was “does not change” and the “water absorbed in DVS” value ([3]; at 80% RH, 25° C.) was “about 0.57%”.
